Consider four molecules from article PMC12216609, “Inhibitors of eIF1A-ribosome interaction unveil uORF-dependent regulation of translation initiation and antitumor and antiviral effects” (The EMBO Journal, 2025).

Test [1] relates to IRF7 5'UTR firefly luciferase reporter in HEK293T cells. To be noted: for Reference vs IRF7 (Final data, Fig. 1E): 1/Result, relative to DMSO; for LONG (summary - All), normalized to DMSO / Long: Normalized to average DMSO: Long reporter; for LONG (summary - All), normalized to DMSO / SHORT (summary - All), normalized to DMSO: individual replicates, outliers excluded, DMSO = 1; for average ( long vs short ratio): summary - All.

The subject of test [2] is CUG/GUG vs AUG start codon luciferase reporters in HEK293T cells. Put plainly: Near-cognate AUG starting codon fidelity reporter assay (GUG, CUG vs AUG). It counts as cell-based. To be noted: for average CUG and GUG / average CUG and GUG relative to DMSO / CUG Average / GUG Average: NUG experiment; for CUG Average: CUG vs AUG reporter; for GUG Average: GUG vs AUG reporter; for NUG (Final data, Fig. 1E): average CUG and GUG relative to DMSO, 20 µM overnight; for GUG vs AUG data (%): individual repeat; for GUG vs AUG (%) Average: summary average of repeats, DMSO control average […]; for CUG vs AUG (%): CUG start codon reporter relative to AUG reporter (AUG = 100); for CUG vs AUG (%) / GUG vs AUG (%): single-experiment calculation; for GUG vs AUG (%): GUG start codon reporter relative to AUG reporter (AUG = 100). The procedure:
We next considered the importance of eIF1A in controlling start codon fidelity in yeast and mammalian cells (Martin-Marcos et al, [2011]; Martin-Marcos et al, [2017]; Sehrawat et al, [2019]; She et al, [2023]) and tested how inhibition of eIF1A by 1Ais affects the initiation from near-cognate AUG. The effect of 1Ais was analyzed using firefly luciferase reporters bearing either AUG (control), CUG, or GUG as the exclusive translation initiation sites. Co-transfected GFP reporter served as an internal control for transfection efficiency.
For the near-cognate AUG Starting codon fidelity reporter assay, HEK293T cells were transfected with 100 ng of the previously described luciferase reporter constructs driven either by AUG, CUG, and GUG (Tang et al, [2017]) together with GFP expressing plasmid (20 ng) as normalizing control. Luciferase and GFP levels were determined as described above.
Appendix Figure S1: (A) HEK293T cells were transfected with Luciferase reporter genes with either CUG or AUG as their exclusive starting codon. 6 hours after transfection, cells were exposed to 1Ais, and the luminescence from all constructs was measured after overnight incubation. Bars represent the ratio between luminescence from the AUG starting codon and CUG after normalization with co-transfected GFP; Error bars represent SEM, * denotes p<0.05 (T-test comparing to DMSO control), n=≥4 independent biological replicates.

[3] abbreviates: data section, GFP-corrected, 20 µM, per experiment, includes values excluded as outliers.
Where [4] appears, read: compound at 10uM (summary head).

“And” between values parts separate entries of the source, which are not always exact repeats. Identical values can stand only once. Like-named read-outs stand apart in the source and are kept apart here.
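Throughout, for LONG (summary - All), normalized to DMSO: luciferase signal corrected by a co-transfected GFP reporter for transfection efficiency, read after overnight compound exposure, with Long and Short reporters differing in 5'UTR length.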
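Throughout, for Long: Normalized to average DMSO: luciferase signal corrected by a co-transfected GFP reporter for transfection efficiency, read after overnight compound exposure, with Long and Short reporters differing in 5'UTR length.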
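Throughout, for Reference vs IRF7 (Final data, Fig. 1E): luciferase signal corrected by a co-transfected GFP reporter for transfection efficiency, read after overnight compound exposure, with Long and Short reporters differing in 5'UTR length.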
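Throughout, for SHORT (summary - All), normalized to DMSO: luciferase signal corrected by a co-transfected GFP reporter for transfection efficiency, read after overnight compound exposure, with Long and Short reporters differing in 5'UTR length.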

On to `O=C(CSc1nc(-c2ccccc2)cn1-c1ccccc1)NC(=O)Nc1ccccc1` [1Ai-2383], for which, in test [1] (20 µM), the “Reference vs IRF7 (Final data, Fig. 1E)” value is 1.265; the “LONG (summary - All), normalized to DMSO” value was 0.91 and 0.57 and 0.60; the “average ( long vs short ratio)” value was 0.790. In addition, the “SHORT (summary - All), normalized to DMSO” value (“SHORT … normalized to DMSO” for short) in test [1] (Short reporter, 20 µM) was 0.93 and 0.86 and 0.76. Besides, in test [1] (setting [3]), the “Long: Normalized to average DMSO” value is 0.9138 and 0.5713 and 0.6011 and 0.6048. The “Short: Normalized to average DMSO” value in test [1] (data section, Short reporter, GFP-corrected, 20 µM, per experiment, includes values excluded as outliers) is 0.9324 and 0.8573 and 0.5797 and 0.7642. In addition, in test [2], the “average CUG and GUG” value was 5.372; the “average CUG and GUG relative to DMSO” value was 1.191; the “CUG Average” value came out at 8.595; the “GUG Average” value came out at 2.149. The “NUG (Final data, Fig. 1E)” value in test [2] was 1.191. For the same molecule, in test [2] (compound at 20uM), the “GUG vs AUG data (%)” value was 2.05% and 2.35% and 1.83% and 2.36%; the “GUG vs AUG (%) Average” value turned out to be 2.15%.
Regarding `COc1ccc2oc(C(=O)OC(C)C(=O)Nc3sccc3C(N)=O)c(C)c2c1` (stereo not shown) [1Ai-3044], the “Reference vs IRF7 (Final data, Fig. 1E)” value in test [1] (20 µM) turned out to be 0.527. In test [1] (10 µM), the “LONG (summary - All), normalized to DMSO” value was 0.55 and 1.64 and 1.20 and 0.82 and 1.11; the “average ( long vs short ratio)” value was determined as 1.568. In test [1] (Short reporter, 10 µM), the “SHORT … normalized to DMSO” value was 0.72 and 0.67 and 0.70 and 0.63. In addition, in test [1] (compound at 10 µM, left data block (Long), source data of Fig 1C), the “Long 5'UTR reporter luciferase activity, normalized to DMSO (=1), single replicates” value is 0.5511 and 1.639 and 1.204 and 0.8163 and 1.106. Besides, in test [2] (setting [4]), the “CUG vs AUG (%)” value is on record as 8.177% and the “GUG vs AUG (%)” value was 1.952%. Besides, in test [2], the “average CUG and GUG” value turned out to be 5.9112; the “average CUG and GUG relative to DMSO” value is listed as 1.3106; the “CUG Average” value turned out to be 9.682; the “GUG Average” value is recorded as 2.141. For the same molecule, the “NUG (Final data, Fig. 1E)” value in test [2] stood at 1.311. Moreover, in test [2] (compound at 10uM), the “GUG vs AUG data (%)” value was 2.24% and 1.90% and 2.01% and 2.41%; the “GUG vs AUG (%) Average” value worked out at 2.14%.
Regarding `O=S(=O)(c1ccccc1)N1CCN(C2c3ccccc3-c3ccccc32)CC1` [1Ai-9025], in test [1] (20 µM), the “Reference vs IRF7 (Final data, Fig. 1E)” value is 1.762; the “LONG (summary - All), normalized to DMSO” value is 0.59 and 0.94 and 0.66 and 0.50; the “average ( long vs short ratio)” value came out at 0.568. In addition, the “SHORT … normalized to DMSO” value in test [1] (Short reporter, 20 µM) was 1.30 and 0.73 and 1.51. The “Long: Normalized to average DMSO” value in test [1] (setting [3]) is 0.5873 and 0.9413 and 0.6597 and 0.4965. In test [2], the “average CUG and GUG” value worked out at 4.366; the “average CUG and GUG relative to DMSO” value was 0.9681; the “CUG Average” value amounted to 6.84; the “GUG Average” value was 1.892. The “NUG (Final data, Fig. 1E)” value in test [2] was 0.968. In addition, in test [2] (compound at 20uM), the “GUG vs AUG data (%)” value was 2.56% and 1.57% and 2.32% and 1.11%; the “GUG vs AUG (%) Average” value amounted to 1.89%.
As to `Oc1cc(Cl)ccc1Oc1ccc(Cl)cc1Cl` [1Ai-6248], the “Reference vs IRF7 (Final data, Fig. 1E)” value in test [1] (20 µM) is on record as 2.307. Moreover, in test [1] (5 µM), the “LONG (summary - All), normalized to DMSO” value is 0.82 and 0.51 and 0.33 and 0.43; the “average ( long vs short ratio)” value was 0.861. In addition, in test [1] (Short reporter, 5 µM), the “SHORT … normalized to DMSO” value is 0.71 and 0.90 and 0.20. Moreover, in test [2] (compound at 5uM (summary head)), the “CUG vs AUG (%)” value is 9.031% and 6.716%; the “GUG vs AUG (%)” value is 1.808% and 1.909%. In addition, in test [2], the “average CUG and GUG” value is on record as 4.51; the “average CUG and GUG relative to DMSO” value is 1; the “CUG Average” value is reported as 7.441; the “GUG Average” value is listed as 1.579. Besides, in test [2], the “NUG (Final data, Fig. 1E)” value was found to be 1.000. Further, in test [2] (compound at 5uM), the “GUG vs AUG data (%)” value was 1.28% and 2.36% and 1.32% and 1.37%; the “GUG vs AUG (%) Average” value was determined as 1.58%.
